Assays:
Interstitial collagenase = molecular target: T1, Interstitial collagenase (Homo sapiens, UniProt P03956); test: biochemical; format: tissue-based, Rheumatoid synovial fibroblasts;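 further: MMP-1 enzyme inhibition assay using a peptide substrate; in other assays of this panel Not Active means under 50% inhibition at 10 µM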
T1 sequence (P03956 whole entry): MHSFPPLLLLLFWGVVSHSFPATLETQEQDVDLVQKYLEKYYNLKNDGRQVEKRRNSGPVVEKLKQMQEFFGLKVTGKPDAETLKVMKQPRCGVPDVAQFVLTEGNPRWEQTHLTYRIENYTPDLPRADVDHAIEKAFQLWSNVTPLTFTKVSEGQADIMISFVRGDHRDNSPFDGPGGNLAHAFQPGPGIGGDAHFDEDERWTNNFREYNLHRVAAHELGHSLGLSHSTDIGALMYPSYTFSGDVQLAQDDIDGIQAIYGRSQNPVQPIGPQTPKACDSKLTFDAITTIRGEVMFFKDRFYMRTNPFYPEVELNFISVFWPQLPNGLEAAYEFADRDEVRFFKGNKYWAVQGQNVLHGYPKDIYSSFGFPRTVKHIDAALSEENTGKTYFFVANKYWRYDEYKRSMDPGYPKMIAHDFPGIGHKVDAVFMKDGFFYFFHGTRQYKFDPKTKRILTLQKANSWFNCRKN

[1] = DRUGMATRIX: Serotonin (5-Hydroxytryptamine) 5-HT3 radioligand binding (ligand: [3H] GR-65630); format: cell membranes, Membrane; settings: hek293; Not Active = under 50% inhibition at 10 µM
[2] = molecular target: Beta-1 adrenergic receptor (Homo sapiens, UniProt P08588); test: DRUGMATRIX: Adrenergic beta1 radioligand binding (ligand: [125I] Cyanopindolol); format: cell membranes, CHO-K1, Membrane; settings: cho-k1; Not Active = under 50% inhibition at 10 µM
Chain of Beta-1 adrenergic receptor (P08588 whole entry): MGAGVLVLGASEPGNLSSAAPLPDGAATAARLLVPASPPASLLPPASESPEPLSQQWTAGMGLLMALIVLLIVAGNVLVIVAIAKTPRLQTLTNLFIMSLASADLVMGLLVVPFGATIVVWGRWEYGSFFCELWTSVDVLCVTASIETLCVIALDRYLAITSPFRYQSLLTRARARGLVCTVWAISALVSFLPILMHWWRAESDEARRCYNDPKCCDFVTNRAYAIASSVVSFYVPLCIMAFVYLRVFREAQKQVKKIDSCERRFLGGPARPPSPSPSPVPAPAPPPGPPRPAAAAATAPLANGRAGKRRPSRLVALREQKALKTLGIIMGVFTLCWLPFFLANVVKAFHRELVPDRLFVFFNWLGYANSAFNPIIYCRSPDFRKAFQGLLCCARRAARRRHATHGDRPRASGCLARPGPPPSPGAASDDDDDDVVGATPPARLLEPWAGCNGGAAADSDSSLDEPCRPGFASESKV

[3] = DRUGMATRIX: Interleukin IL-1 radioligand binding (ligand: [125I] interleukin 1beta); format: cell membranes, Membrane; settings: nih3t3; Not Active = under 50% inhibition at 10 µM
D(1A) dopamine receptor = D(1A) dopamine receptor (Homo sapiens, UniProt P21728); test: DRUGMATRIX: Dopamine D1 radioligand binding (ligand: [3H] SCH-23390); format: cell membranes, CHO, Membrane; settings: cho; Not Active = under 50% inhibition at 10 µM
Chain of D(1A) dopamine receptor (P21728 whole entry): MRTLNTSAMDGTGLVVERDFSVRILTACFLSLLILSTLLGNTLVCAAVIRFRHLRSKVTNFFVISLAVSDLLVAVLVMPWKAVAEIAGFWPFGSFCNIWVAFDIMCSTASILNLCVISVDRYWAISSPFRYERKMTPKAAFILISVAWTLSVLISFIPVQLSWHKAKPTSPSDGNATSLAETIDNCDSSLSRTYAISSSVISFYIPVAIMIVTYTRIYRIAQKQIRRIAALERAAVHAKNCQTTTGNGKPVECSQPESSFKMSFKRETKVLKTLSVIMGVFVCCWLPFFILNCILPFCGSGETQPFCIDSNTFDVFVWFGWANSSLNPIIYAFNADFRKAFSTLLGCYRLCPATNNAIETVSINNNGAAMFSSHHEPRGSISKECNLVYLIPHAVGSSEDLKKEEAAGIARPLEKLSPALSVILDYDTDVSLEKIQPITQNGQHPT

Estrogen receptor beta = Estrogen receptor beta (Homo sapiens, UniProt Q92731); settings: sf9; further: in other assays of this panel Not Active means under 50% inhibition at 10 µM
Chain of Estrogen receptor beta (Q92731 whole entry): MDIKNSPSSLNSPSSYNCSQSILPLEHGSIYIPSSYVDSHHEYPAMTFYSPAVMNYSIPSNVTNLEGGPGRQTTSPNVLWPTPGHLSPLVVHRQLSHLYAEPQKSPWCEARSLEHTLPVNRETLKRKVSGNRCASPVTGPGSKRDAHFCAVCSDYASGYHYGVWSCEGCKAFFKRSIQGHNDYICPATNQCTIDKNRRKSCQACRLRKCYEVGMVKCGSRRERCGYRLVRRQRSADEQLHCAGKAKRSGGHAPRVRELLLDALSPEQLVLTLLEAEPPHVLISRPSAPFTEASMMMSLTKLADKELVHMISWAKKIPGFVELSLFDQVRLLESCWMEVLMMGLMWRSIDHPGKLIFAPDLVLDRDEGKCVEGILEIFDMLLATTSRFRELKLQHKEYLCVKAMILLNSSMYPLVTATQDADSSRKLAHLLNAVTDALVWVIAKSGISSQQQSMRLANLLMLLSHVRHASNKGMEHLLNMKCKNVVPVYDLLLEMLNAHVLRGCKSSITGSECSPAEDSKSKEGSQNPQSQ

Adenosine receptor A3 = molecular target: T2, Adenosine receptor A3 (Homo sapiens, UniProt P0DMS8); format: cell membranes, CHO-K1, Membrane; settings: cho-k1;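 further: radioligand binding assay with AB-MECA serving as the labeled ligand; in other assays of this panel Not Active means under 50% inhibition at 10 µM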
T2 sequence (P0DMS8 whole entry): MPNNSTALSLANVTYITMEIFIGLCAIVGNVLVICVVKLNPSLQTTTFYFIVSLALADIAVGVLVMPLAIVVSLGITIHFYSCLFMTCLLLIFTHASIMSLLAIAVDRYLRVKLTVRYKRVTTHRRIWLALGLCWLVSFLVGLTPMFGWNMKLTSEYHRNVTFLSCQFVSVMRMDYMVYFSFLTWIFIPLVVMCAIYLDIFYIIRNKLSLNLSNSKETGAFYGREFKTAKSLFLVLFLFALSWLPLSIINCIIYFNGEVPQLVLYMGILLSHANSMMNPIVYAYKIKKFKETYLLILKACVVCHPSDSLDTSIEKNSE

Insulin receptor = Insulin receptor (Rattus norvegicus, UniProt P15127); format: cell membranes, Wistar, Liver, Membrane; further: in other assays of this panel Not Active means under 50% inhibition at 10 µM
Chain of Insulin receptor (P15127 27-759 limits assumed): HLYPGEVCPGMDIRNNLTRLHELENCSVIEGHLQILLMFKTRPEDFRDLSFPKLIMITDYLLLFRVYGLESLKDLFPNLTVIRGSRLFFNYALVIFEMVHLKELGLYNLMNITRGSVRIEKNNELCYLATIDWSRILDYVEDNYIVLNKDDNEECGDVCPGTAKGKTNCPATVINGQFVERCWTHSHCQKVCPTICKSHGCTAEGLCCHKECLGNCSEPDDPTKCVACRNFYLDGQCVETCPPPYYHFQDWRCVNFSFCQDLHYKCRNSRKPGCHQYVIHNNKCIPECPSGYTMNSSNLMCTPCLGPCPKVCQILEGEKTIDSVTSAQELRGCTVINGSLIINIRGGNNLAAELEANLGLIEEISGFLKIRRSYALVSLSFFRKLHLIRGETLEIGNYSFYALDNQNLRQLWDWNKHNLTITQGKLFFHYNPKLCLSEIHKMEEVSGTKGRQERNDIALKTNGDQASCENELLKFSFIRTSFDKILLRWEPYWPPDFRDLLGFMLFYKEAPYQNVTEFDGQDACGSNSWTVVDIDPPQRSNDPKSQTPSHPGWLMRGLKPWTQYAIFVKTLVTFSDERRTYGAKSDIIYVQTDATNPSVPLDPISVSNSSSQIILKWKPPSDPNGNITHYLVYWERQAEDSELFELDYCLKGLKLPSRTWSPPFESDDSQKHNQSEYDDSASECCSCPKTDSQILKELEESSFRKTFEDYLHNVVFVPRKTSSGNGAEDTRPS
Chain of Insulin receptor (P15127 764-1383 limits assumed): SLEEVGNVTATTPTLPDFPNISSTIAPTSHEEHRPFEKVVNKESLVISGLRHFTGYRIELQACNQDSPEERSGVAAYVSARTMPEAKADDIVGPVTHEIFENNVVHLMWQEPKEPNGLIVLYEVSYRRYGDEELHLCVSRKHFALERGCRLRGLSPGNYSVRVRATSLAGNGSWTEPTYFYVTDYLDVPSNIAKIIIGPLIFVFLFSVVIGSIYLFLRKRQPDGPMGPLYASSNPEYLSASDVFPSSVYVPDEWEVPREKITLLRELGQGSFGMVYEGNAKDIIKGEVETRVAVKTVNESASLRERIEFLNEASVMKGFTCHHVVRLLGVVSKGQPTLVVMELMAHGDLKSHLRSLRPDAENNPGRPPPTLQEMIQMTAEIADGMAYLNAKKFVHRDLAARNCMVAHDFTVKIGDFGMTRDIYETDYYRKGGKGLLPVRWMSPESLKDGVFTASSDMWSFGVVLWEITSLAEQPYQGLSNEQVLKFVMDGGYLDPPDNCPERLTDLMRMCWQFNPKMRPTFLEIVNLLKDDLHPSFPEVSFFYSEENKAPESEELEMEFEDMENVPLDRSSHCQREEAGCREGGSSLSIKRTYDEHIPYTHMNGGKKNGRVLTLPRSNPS

[4] = molecular target: T3, C-X-C chemokine receptor type 2 (Homo sapiens, UniProt P25025); format: cell membranes, Membrane; settings: cho-k1; further: in other assays of this panel Not Active means under 50% inhibition at 10 µM
T3 sequence (P25025 whole entry): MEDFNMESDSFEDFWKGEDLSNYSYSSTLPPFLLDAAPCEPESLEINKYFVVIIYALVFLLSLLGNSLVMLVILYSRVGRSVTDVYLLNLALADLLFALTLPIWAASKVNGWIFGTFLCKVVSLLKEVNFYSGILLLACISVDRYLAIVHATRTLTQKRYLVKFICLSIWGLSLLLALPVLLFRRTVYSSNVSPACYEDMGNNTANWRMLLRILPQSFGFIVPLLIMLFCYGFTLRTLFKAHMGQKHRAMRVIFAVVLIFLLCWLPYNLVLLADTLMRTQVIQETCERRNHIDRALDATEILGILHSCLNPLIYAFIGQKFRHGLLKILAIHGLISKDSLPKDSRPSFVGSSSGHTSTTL

N#Cc1ccc(C(c2ccc(C#N)cc2)n2cncn2)cc1 [LETROZOLE]
Not Active: IC50 (Interstitial collagenase) | IC50 [1] | Ki [1] | IC50 [2] | IC50 [3] | Ki [3] | IC50 (D(1A) dopamine receptor) | IC50 (Estrogen receptor beta) | IC50 (Adenosine receptor A3) | IC50 (Insulin receptor) | IC50 [4]

CCN1CCC[C@H]1CNC(=O)c1cc(S(N)(=O)=O)ccc1OC [LEVOSULPIRIDE]
Not Active: IC50 (Interstitial collagenase) | IC50 [1] | Ki [1] | IC50 [2] | IC50 [3] | Ki [3] | IC50 (D(1A) dopamine receptor) | IC50 (Estrogen receptor beta) | IC50 (Adenosine receptor A3) | IC50 (Insulin receptor) | IC50 [4]

CCN(CC)CC(=O)Nc1c(C)cccc1C [LIDOCAINE]
Not Active: IC50 (Interstitial collagenase) | IC50 [1] | Ki [1] | IC50 [2] | IC50 [3] | Ki [3] | IC50 (D(1A) dopamine receptor) | IC50 (Estrogen receptor beta) | IC50 (Adenosine receptor A3) | IC50 (Insulin receptor) | IC50 [4]

O=C1Nc2ccc(Cl)cc2C(c2ccccc2Cl)=NC1O (stereo not drawn) [LORAZEPAM]
Not Active: IC50 (Interstitial collagenase) | IC50 [1] | Ki [1] | IC50 [2] | IC50 [3] | Ki [3] | IC50 (D(1A) dopamine receptor) | IC50 (Estrogen receptor beta) | IC50 (Adenosine receptor A3) | IC50 (Insulin receptor) | IC50 [4]

COc1c2occc2cc2ccc(=O)oc12 [METHOXSALEN]
Not Active: IC50 (Interstitial collagenase) | IC50 [1] | Ki [1] | IC50 [2] | IC50 [3] | Ki [3] | IC50 (D(1A) dopamine receptor) | IC50 (Estrogen receptor beta) | IC50 (Adenosine receptor A3) | IC50 (Insulin receptor) | IC50 [4]

Nc1cc(N2CCCCC2)nc(N)[n+]1[O-] [MINOXIDIL]
Not Active: IC50 (Interstitial collagenase) | IC50 [1] | Ki [1] | IC50 [2] | IC50 [3] | Ki [3] | IC50 (D(1A) dopamine receptor) | IC50 (Estrogen receptor beta) | IC50 (Adenosine receptor A3) | IC50 (Insulin receptor) | IC50 [4]

CO[C@H]1/C=C/O[C@@]2(C)Oc3c(C)c(O)c4c(O)c(c(/C=N/N5CCN(C6CCCC6)CC5)c(O)c4c3C2=O)NC(=O)/C(C)=C\C=C\[C@H](C)[C@H](O)[C@@H](C)[C@@H](O)[C@@H](C)[C@H](OC(C)=O)[C@@H]1C [RIFAPENTINE]
Not Active: IC50 (Interstitial collagenase) | IC50 [1] | Ki [1] | IC50 [2] | IC50 [3] | Ki [3] | IC50 (D(1A) dopamine receptor) | IC50 (Estrogen receptor beta) | IC50 (Adenosine receptor A3) | IC50 (Insulin receptor) | IC50 [4]

CCCCOc1cc(CC2CNC(=O)N2)ccc1OC (stereo not drawn) [RO-201724]
Not Active: IC50 (Interstitial collagenase) | IC50 [1] | Ki [1] | IC50 [2] | IC50 [3] | Ki [3] | IC50 (D(1A) dopamine receptor) | IC50 (Estrogen receptor beta) | IC50 (Adenosine receptor A3) | IC50 (Insulin receptor) | IC50 [4]

CC[C@@H](C(=O)[C@@H](C)[C@@H](O)[C@H](C)[C@@H]1O[C@@H]([C@@H](CC)C(=O)O)CC[C@@H]1C)[C@H]1O[C@]2(C=C[C@@H](O)[C@]3(CC[C@@](C)([C@H]4CC[C@](O)(CC)[C@H](C)O4)O3)O2)[C@H](C)C[C@@H]1C [SALINOMYCIN]
Not Active: IC50 (Interstitial collagenase) | IC50 [1] | Ki [1] | IC50 [2] | IC50 [3] | Ki [3] | IC50 (D(1A) dopamine receptor) | IC50 (Estrogen receptor beta) | IC50 (Adenosine receptor A3) | IC50 (Insulin receptor) | IC50 [4]

NC(=O)N1C(=O)/C(=C(\O)c2cccs2)c2cc(Cl)ccc21 [TENIDAP]
Not Active: IC50 (Interstitial collagenase) | IC50 [1] | Ki [1] | IC50 [2] | IC50 [3] | Ki [3] | IC50 (D(1A) dopamine receptor) | IC50 (Estrogen receptor beta) | IC50 (Adenosine receptor A3) | IC50 (Insulin receptor) | IC50 [4]

COc1cc2nc(N3CCN(C(=O)C4CCCO4)CC3)nc(N)c2cc1OC (stereo not drawn) [TERAZOSIN]
Not Active: IC50 (Interstitial collagenase) | IC50 [1] | Ki [1] | IC50 [2] | IC50 [3] | Ki [3] | IC50 (D(1A) dopamine receptor) | IC50 (Estrogen receptor beta) | IC50 (Adenosine receptor A3) | IC50 (Insulin receptor) | IC50 [4]

CN(C/C=C/C#CC(C)(C)C)Cc1cccc2ccccc12 [TERBINAFINE]
Not Active: IC50 (Interstitial collagenase) | IC50 [1] | Ki [1] | IC50 [2] | IC50 [3] | Ki [3] | IC50 (D(1A) dopamine receptor) | IC50 (Estrogen receptor beta) | IC50 (Adenosine receptor A3) | IC50 (Insulin receptor) | IC50 [4]

CCN(CC)CCNC(=O)c1cc(S(C)(=O)=O)ccc1OC [TIAPRIDE]
Not Active: IC50 (Interstitial collagenase) | IC50 [1] | Ki [1] | IC50 [2] | IC50 [3] | Ki [3] | IC50 (D(1A) dopamine receptor) | IC50 (Estrogen receptor beta) | IC50 (Adenosine receptor A3) | IC50 (Insulin receptor) | IC50 [4]

Clc1ccccc1CN1CCc2sccc2C1 [TICLOPIDINE]
Not Active: IC50 (Interstitial collagenase) | IC50 [1] | Ki [1] | IC50 [2] | IC50 [3] | Ki [3] | IC50 (D(1A) dopamine receptor) | IC50 (Estrogen receptor beta) | IC50 (Adenosine receptor A3) | IC50 (Insulin receptor) | IC50 [4]

NC1CCN(c2nc3c(cc2F)c(=O)c(C(=O)O)cn3-c2ccc(F)cc2F)C1 (stereo not drawn) [TOSUFLOXACIN]
Not Active: IC50 (Interstitial collagenase) | IC50 [1] | Ki [1] | IC50 [2] | IC50 [3] | Ki [3] | IC50 (D(1A) dopamine receptor) | IC50 (Estrogen receptor beta) | IC50 (Adenosine receptor A3) | IC50 (Insulin receptor) | IC50 [4]

O=C(Nc1ccc(Br)cc1)c1cc(Br)cc(Br)c1O [TRIBROMSALAN]
Not Active: IC50 (Interstitial collagenase) | IC50 [1] | Ki [1] | IC50 [2] | IC50 [3] | Ki [3] | IC50 (D(1A) dopamine receptor) | IC50 (Estrogen receptor beta) | IC50 (Adenosine receptor A3) | IC50 (Insulin receptor) | IC50 [4]

CC(c1cc2ccccc2s1)N(O)C(N)=O (stereo not drawn) [ZILEUTON]
Not Active: IC50 (Interstitial collagenase) | IC50 [1] | Ki [1] | IC50 [2] | IC50 [3] | Ki [3] | IC50 (D(1A) dopamine receptor) | IC50 (Estrogen receptor beta) | IC50 (Adenosine receptor A3) | IC50 (Insulin receptor) | IC50 [4]

MANGANESE CHLORIDE ANHYDROUS
Not Active: IC50 (Interstitial collagenase) | Ki (Interstitial collagenase) | IC50 [1] | Ki [1] | IC50 [2] | Ki [2] | IC50 [3] | Ki [3] | IC50 (D(1A) dopamine receptor) | Ki (D(1A) dopamine receptor) | IC50 (Estrogen receptor beta) | Ki (Estrogen receptor beta) | IC50 (Adenosine receptor A3) | Ki (Adenosine receptor A3) | IC50 (Insulin receptor) | Ki (Insulin receptor) | IC50 [4] | Ki [4]

SODIUM ORTHOVANAD
Not Active: IC50 (Interstitial collagenase) | Ki (Interstitial collagenase) | IC50 [1] | Ki [1] | IC50 [2] | Ki [2] | IC50 [3] | Ki [3] | IC50 (D(1A) dopamine receptor) | Ki (D(1A) dopamine receptor) | IC50 (Estrogen receptor beta) | Ki (Estrogen receptor beta) | IC50 (Adenosine receptor A3) | Ki (Adenosine receptor A3) | IC50 (Insulin receptor) | Ki (Insulin receptor) | IC50 [4] | Ki [4]
